Patent publication US20210369155A1, “Analyte Sensors and Sensing Methods for Detecting Inhibitors of Diaphorase” (Abbott Diabetes Care Inc., priority 2020, published 2021)

Assays:
[1] = tested on: Diaphorase; test: Inhibition of diaphorase by dicoumarol: NADH and dicoumarol titrated into PBS exposed to diaphorase-coated carbon working electrodes; format: biochemical
Experimental: (§1) Example 1: Inhibition of Diaphorase by Dicoumarol. For this example, the spotting formulations shown in Table 1 below were coated onto separate carbon working electrodes. A micro-syringe was use to deposit 35 nL of each formulation as a single spot having an area of around 0.2 mm^2 upon separate carbon working electrodes. Following deposition, the working electrodes were cured overnight at 25° C.
The electrodes were exposed to fresh phosphate buffered saline (PBS) solutions, and varying amounts of NADH and dicoumarol were then titrated into the buffered solutions. No glucose or GDH was added to “power” the sensors and complete the enzyme system specified above (FIG. 3B). […] To the buffered solution containing 30 μM NADH was then titrated dicoumarol up to a concentration of 100 μM. […] FIG. 10 is a graph showing the results of titrating NADH and dicoumarol (DCM) into PBS solutions exposed to the analyte sensors of Example 1 (Sensors 1-4). […] A higher signal resulted for Sensor 2 as a result of its higher concentration of diaphorase. Given the goal of making the sensor response to be diaphorase limited, further optimization work centered around optimizing the sensor response at a low-concentration loading of the diaphorase. […]

[2] = tested on: Diaphorase; test: Detection of dicoumarol with sensors whose active area holds glucose dehydrogenase, NAD and rate-limiting diaphorase: glucose and dicoumarol titrated into PBS; format: biochemical; details: Sensors 5-8; PBS with 500 μM NAD, glucose up to 50 μM; DCM titrated up to 160 μM
Experimental: as §1, with “2: Detection” for “1: Inhibition”, “Dicoumarol Using an Analyte Sensor Having an Active Area with Glucose Dehydrogenase and a Rate-Limited Electron Transfer to the Working Electrode.” for “Diaphorase by Dicoumarol.”, “2” for “1”
Glucose and dicoumarol were then titrated to PBS solutions in which the sensors were immersed. A 500 μM quantity of NAD was first added to the buffer solution, followed by three additions of glucose up to 50 μM. Thereafter, dicoumarol (DCM) was titrated up to 160 μM. FIGS. 14A and 14B are graphs showing the results of titrating glucose and dicoumarol (DCM) into PBS solutions exposed to electrodes having variable amounts of NAD-dependent glucose dehydrogenase in an active area thereon. […] As shown, increasing amounts of glucose dehydrogenase increased the signal response during glucose addition and during DCM addition.

Compound: O=c1oc2ccccc2c(O)c1Cc1c(O)c2ccccc2oc1=O [dicoumarol]
- normalized sensor response as a function of dicoumarol concentration (FIGS. 11A, 11B, 13) ([1]; 0.2 mg/mL diaphorase, 0.4 mg/mL electron transfer agent, NADH titrated up to 160 μM): strong inhibition
- sensor signal as the dicoumarol concentration increased (FIG. 10) ([1]; only Sensors 2 and 4 (0.4 mg/mL Formula 1 polymer), PBS with 30 μM NADH, dicoumarol titrated up to 100 μM, no glucose or GDH): sudden and sensitive decrease in signal
- sensor current response during DCM addition (FIGS. 14A, 14B) [2]: response decreased as increasing amounts of DCM were added
